Laboratory results published in US20250129021A1, “SMALL MOLECULE PROTEIN SYNTHESIS MODULATORS” (Interdict Bio, Inc., priority 2023, published 2025).
Structures can show the parent of a compound that is named as a salt.

Tests used:
Assay type in all cases: biochemical
Settings in all cases: HeLa S3 lysate, sfGFP/mCherry ratio, 2 hrs at 30° C.
KRAS G12D = assay: In vitro transcription-translation (IVTT) assay, KRAS G12D reporter
From the text: All reporter constructs have been cloned into the pT7CFE1-CHis plasmid (ThermoFisher #88860) using Gibson assembly procedures (NEB #E2611L). The parental pT7CFE1-CHis plasmid contains an EMCV IRES at the 5′UTR for translation initiation, a multiple-cloning site (MCS) for gene insertion, an optional C-terminal His-epitope tag, and polyA sequence in the 3′UTR to regulate mRNA stability. All reporters are designed to be inserted at the MCS to include a red fluorescent protein (mCherry), P2A self-cleaving peptide which releases the preceding mCherry protein product, and a fusion open reading frame containing a 3×FLAG epitope, a peptide sequence of interest (TEST), and green fluorescent protein (sfGFP).
Construct Plasmid Preparation: All plasmids are isolated from MACH1 cells (ThermoFisher) grown overnight in ampicillin-containing luria broth, and purified using ZymoPure Express Plasmid Midiprep Kit (Zymo Research). Constructs are sequenced verified and diluted to a working concentration of 110 ng/μL.
HeLa S3 Lysate Preparation: HeLa S3 cell pellets are acquired from Ipracell/Ipratech (Belgium) and shipped as 4 mL frozen cell pellets on dry ice for storage at −80° C. until use. The procedure for lysate preparation is as follows. Prepare 1× Lysis Buffer, cold and stored on ice:
Each preparation takes 8 cell pellets (4 ml packed volume each, approximately 1.0×10^9 cells per pellet). Thaw cell pellets from −80° C. on ice for 90 mins. Lay pellets horizontally on top of the ice and rotate every 30 mins to ensure even thawing. Once thawed, add 4 mL of cold lysis buffer to each pellet, and using a serological pipet, gently pipet up and down to break up clumps. Incubate resuspended cells in ice for an additional 30 mins (plunged into ice). During 30 min incubation, rinse and RNase-zap (Ambion) glass dounces (use loose pestle “A”), gently dry and place on ice until needed. Prepare RNase-free Eppendorf tubes for spinning and for batch storage. Add batch labels to 1.5-1.7 mL RNase-free microcentrifuge tubes (labeling scheme below). Each batch will have an extra 1.5-1.7 mL RNase-free microcentrifuge tube for 40 μL of lysate, label the top of this tube (labeling scheme below). After 30 min incubation, transfer all 8 mL of cell pellet to dounce. Cell lysis is complete after douncing 100 times. Aliquot cell lysis into 1.5-1.7 mL temporary-microcentrifuge tubes. Place tubes in centrifuge with “fins” out, and spin at 1,200×g for 5 mins. After the first spin use a 1 mL pipet to resuspend each tube and repeat spin. This acts as an additional lysis step, is more vigorous and increases lysate yield. During second spin get liquid N2 and a fresh conical tube on ice. After spin is complete, transfer supernatant (lysate) from microcentrifuge tubes into the 50 mL conical tube and keep on ice. Repeat steps 10-14 for all other cell pellets until completed. Once all cell lysate has been transferred to the 50 mL conical tube pipet to mix so the solution is homogenous. Transfer 1 mL of lysate into batch-labeled microcentrifuge tubes and flash freeze in liquid nitrogen. Be sure to pipet up and down to mix throughout transfer step. Place all tubes in the […] for long-term storage.
In vitro transcription-translation assay setup: Each assay includes a master mix containing lysate and shared components, a 96-well plate containing compound titrations for testing, a 96-well DNA plate with reporter constructs to be tested, 96-well skirted PCR plates, and 96-well flat-bottom, black, fluorescent assay plates. […]

ALK = assay: In vitro transcription-translation (IVTT) assay, ALK reporter
Procedure, shortened: (§1)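 Reporter: mCherry, P2A, then 3×FLAG-target peptide-sfGFP fusion, IRES-initiated; HeLa S3 lysate IVTT; cpd dilutions 30 μM−0.1 μM half-log in 100% DMSO (dilution-plate conc); DNA added last; 2 h, 30° C; PBS quench.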

MYC = assay: In vitro transcription-translation (IVTT) assay, MYC reporter
Procedure, shortened: as §1

Row | SMILES | IC50 (KRAS G12D) [µM] | IC50 (ALK) [µM] | IC50 (MYC) [µM]
1 | CCN(Cc1ccccc1)Cc1nnc(NC(=O)O[C@@H]2[C@@H](O)CN[C@@H]2Cc2ccc(OC)cc2)s1 [V187597, (2R,3S,4S)-4-hydroxy-2-[(4-methoxyphenyl)methyl]pyrrolidin-3-yl N-(5-{[benzyl(ethyl)amino]methyl}-1,3,4-thiadiazol-2-yl)carbamate] | > 30 | > 30 | > 30
2 | COc1ccc(C[C@H]2NC[C@H](O)[C@H]2OC(=O)NCCN2CCC2)cc1 [V187566, (2R,3S,4S)-4-hydroxy-2-[(4-methoxyphenyl)methyl]pyrrolidin-3-yl N-[2-(azetidin-1-yl)ethyl]carbamate; trifluoroacetic acid] | > 30 | 10 to 20 | > 30
3 | COc1ccc(C[C@@H]2NC[C@@H](O)[C@H]2OC(=O)NCCN(Cc2c[nH]cn2)C(=O)C2CCC2)cc1 [V187540, (2S,3S,4R)-4-hydroxy-2-[(4-methoxyphenyl)methyl]pyrrolidin-3-yl N-{2-[1-cyclobutyl-N-(1H-imidazol-4-ylmethyl)formamido]ethyl}carbamate] | > 30 | 10 to 20 | > 30
4 | COc1ccc(C[C@H]2NC[C@H](O)[C@H]2OC(=O)NCCN2CCN(Cc3ccccc3)CC2)cc1 [V187465, (2R,3S,4S)-4-hydroxy-2-[(4-methoxyphenyl)methyl]pyrrolidin-3-yl N-[2-(4-benzylpiperazin-1-yl)ethyl]carbamate] | 10 to 20 | < 10 | < 10
5 | CCN(CC)CCCCNC(=O)O[C@@H]1[C@@H](O)CN[C@@H]1Cc1ccc(OC)cc1 [V187385, (2R,3S,4S)-4-hydroxy-2-[(4-methoxyphenyl)methyl]pyrrolidin-3-yl N-[4-(diethylamino)butyl]carbamate; trifluoroacetic acid] | 20 to 30 | < 10 | 10 to 20
6 | COc1ccc(C[C@H]2NC[C@H](O)[C@H]2OC(=O)NCCN2CC(O)(CNC(C)=O)C2)cc1 [V187582, (2R,3S,4S)-4-hydroxy-2-[(4-methoxyphenyl)methyl]pyrrolidin-3-yl N-{2-[3-(acetamidomethyl)-3-hydroxyazetidin-1-yl]ethyl}carbamate hydrochloride] | > 30 | 10 to 20 | > 30
7 | COc1ccc(C[C@H]2NC[C@H](O)[C@H]2OC(=O)NCCOCCN2C(=O)CNC2=O)cc1 [V187627] | 20 to 30 | < 10 | 10 to 20
8 | COc1ccc(C[C@H]2NC[C@H](O)[C@H]2OC(=O)NC[C@@H]2NC(=O)CNC2=O)cc1 [V187381, (2R,3S,4S)-4-hydroxy-2-[(4-methoxyphenyl)methyl]pyrrolidin-3-yl N-{[(2S)-3,6-dioxopiperazin-2-yl]methyl}carbamate] | > 30 | > 30 | > 30
9 | COc1ccc(C[C@H]2NC[C@H](O)[C@H]2OC(=O)NCCCCN)cc1 [V187592, (2R,3S,4S)-4-hydroxy-2-[(4-methoxyphenyl)methyl]pyrrolidin-3-yl N-(4-aminobutyl)carbamate; trifluoroacetic acid] | < 10 | < 10 | < 10
10 | COc1ccc(C[C@H]2NC[C@H](O)[C@H]2OC(=O)NCCN2CC(N)C2)cc1 [V187624, (2R,3S,4S)-4-hydroxy-2-[(4-methoxyphenyl)methyl]pyrrolidin-3-yl N-[2-(3-aminoazetidin-1-yl)ethyl]carbamate] | > 30 | < 10 | > 30
11 | CCN(CC)CCCNC(=O)O[C@@H]1[C@@H](O)CN[C@@H]1Cc1ccc(OC)cc1 [V187387, (2R,3S,4S)-4-hydroxy-2-[(4-methoxyphenyl)methyl]pyrrolidin-3-yl N-[3-(diethylamino)propyl]carbamate trifluoroacetic acid salt] | > 30 | < 10 | 20 to 30
12 | COc1ccc(CC2NCC(O)C2OC(=O)NC2CC(N)C2)cc1 [V187681, (2R,3S,4S)-4-hydroxy-2-[(4-methoxyphenyl)methyl]pyrrolidin-3-yl N-[(1s,3s)-3-aminocyclobutyl]carbamate] | > 30 | > 30 | > 30
13 | COc1ccc(C[C@H]2NC[C@H](O)[C@H]2OC(=O)NCCN2C[C@@H](O)[C@H](NC(C)=O)C2)cc1 [V187578, (2R,3S,4S)-4-hydroxy-2-[(4-methoxyphenyl)methyl]pyrrolidin-3-yl N-{2-[(3R,4R)-3-acetamido-4-hydroxypyrrolidin-1-yl]ethyl}carbamate] | > 30 | 20 to 30 | > 30
14 | COc1ccc(C[C@H]2NC[C@H](O)[C@H]2OC(=O)Nc2n[nH]c(C)n2)cc1 [V187657, (2R,3S,4S)-4-hydroxy-2-[(4-methoxyphenyl)methyl]pyrrolidin-3-yl N-(5-methyl-1H-1,2,4-triazol-3-yl) carbamate] | 20 to 30 | < 10 | 10 to 20
15 | COc1ccc(C[C@H]2NC[C@H](O)[C@H]2OC(=O)Nc2cc(C)[nH]n2)cc1 [V187658, (2R,3S,4S)-4-hydroxy-2-[(4-methoxyphenyl)methyl]pyrrolidin-3-yl N-(5-methyl-1H-pyrazol-3-yl)carbamate; trifluoroacetic acid] | > 30 | > 30 | > 30
16 | COc1ccc(C[C@H]2NC[C@H](O)[C@H]2OC(=O)NCC[C@H]2CNCCN2Cc2ccccc2)cc1 [V187568, (2R,3S,4S)-4-hydroxy-2-[(4-methoxyphenyl)methyl]pyrrolidin-3-yl N-{2-[(2S)-1-benzylpiperazin-2-yl]ethyl}carbamate] | > 30 | 20 to 30 | > 30
17 | COc1ccc(C[C@H]2NC[C@H](O)[C@H]2OC(=O)NC[C@@H]2CCCO2)cc1 [V187520, (2R,3S,4S)-4-hydroxy-2-[(4-methoxyphenyl)methyl]pyrrolidin-3-yl N-[(2S)-oxolan-2-ylmethyl]carbamate; trifluoroacetic acid] | > 30 | < 10 | 20 to 30
18 | COc1ccc(C[C@H]2NC[C@H](O)[C@H]2OC(=O)NCCN2C[C@@H](O)[C@H](O)C2)cc1 [V187577, (2R,3S,4S)-4-hydroxy-2-[(4-methoxyphenyl)methyl]pyrrolidin-3-yl N-{2-[(3R,4R)-3,4-dihydroxypyrrolidin-1-yl]ethyl}carbamate] | 10 to 20 | < 10 | > 30
19 | COCc1nnc(NC(=O)O[C@@H]2[C@@H](O)CN[C@@H]2Cc2ccc(OC)cc2)s1 [V187730, (2R,3S,4S)-4-hydroxy-2-[(4-methoxyphenyl)methyl]pyrrolidin-3-yl N-[5-(methoxymethyl)-1,3,4-thiadiazol-2-yl]carbamate] | > 30 | > 30 | > 30
20 | COc1ccc(C[C@H]2NC[C@H](O)[C@H]2OC(=O)NCCN2CCC3(CNC3)C2)cc1 [V187644, (2R,3S,4S)-4-hydroxy-2-[(4-methoxyphenyl)methyl]pyrrolidin-3-yl N-(2-{2,6-diazaspiro[3.4]octan-6-yl}ethyl)carbamate; trifluoroacetic acid] | > 30 | 20 to 30 | > 30
21 | COc1ccc(C[C@H]2NC[C@H](O)[C@H]2OC(=O)NCCN2CCC3(CC(O)C3)C2)cc1 (stereo partly drawn) [V187642, (2R,3S,4S)-4-hydroxy-2-[(4-methoxyphenyl)methyl]pyrrolidin-3-yl N-(2-{2-hydroxy-6-azaspiro[3.4]octan-6-yl}ethyl)carbamate] | > 30 | > 30 | > 30
